Measured values reported in article PMC5218480 (PLoS ONE, 2017).

System: MV-4-11 cells
Test: Gene expression microarray analysis (Affymetrix PrimeView) and GSEA
Type: cell-based, human
Set-up: RFU PODN (11730768_x_at) / Fold change /veh PODN (11730768_x_at) / RFU LINC00158 (11744669_a_at) / Fold change /veh LINC00158 (11744669_a_at) / RFU DUSP10 (11751237_a_at) / Fold change /veh DUSP10 (11751237_a_at) / RFU ID3 (11757404_x_at) / Fold change /veh ID3 (11757404_x_at) / RFU PLEKHG5 (11737974_s_at) / Fold change /veh PLEKHG5 (11737974_s_at) / RFU LRRC4B (11730491_at) / Fold change /veh LRRC4B (11730491_at) / RFU GIMAP4 (11747438_a_at) / Fold change /veh GIMAP4 (11747438_a_at) / RFU KRT8 (11758183_x_at) / Fold change /veh KRT8 (11758183_x_at) / RFU CNN1 (11734310_a_at) / Fold change /veh CNN1 (11734310_a_at) / RFU VPS37D (11726825_at) / Fold change /veh VPS37D (11726825_at) / RFU C10orf10 (11716522_x_at) / Fold change /veh C10orf10 (11716522_x_at) / RFU KIR2DL2 /// KIR2DL4 /// KIR2DL5A /// KIR2DL5B /// KIR2DS1 /// KIR2DS2 /// KIR2DS3 /// KIR2DS4 /// KIR3DL3 /// KIR3DL3 /// KIR3DS1 (11738374_at) / Fold change /veh KIR2DL2 /// KIR2DL4 /// KIR2DL5A /// KIR2DL5B /// KIR2DS1 /// KIR2DS2 /// KIR2DS3 /// KIR2DS4 /// KIR3DL3 /// KIR3DL3 /// KIR3DS1 (11738374_at) / RFU C1QL1 (11718748_at) / Fold change /veh C1QL1 (11718748_at) / RFU TMPRSS4 (11747572_a_at) / Fold change /veh TMPRSS4 (11747572_a_at) / RFU HAMP (11756126_x_at) / Fold change /veh HAMP (11756126_x_at) / RFU RNFT2 (11725882_a_at) / Fold change /veh RNFT2 (11725882_a_at) / RFU NR4A2 (11747474_a_at) / Fold change /veh NR4A2 (11747474_a_at) / RFU ABCC12 (11746883_a_at) / Fold change /veh ABCC12 (11746883_a_at) / RFU TMEM136 (11760407_x_at) / Fold change /veh TMEM136 (11760407_x_at) / RFU CLDN22 /// WWC2 (11732394_at) / Fold change /veh CLDN22 /// WWC2 (11732394_at) / RFU HLA-DPB1 (11760878_x_at) / Fold change /veh HLA-DPB1 (11760878_x_at) / RFU SPINT1 (11716480_a_at) / Fold change /veh SPINT1 (11716480_a_at) / RFU GAP43 (11754022_s_at) / Fold change /veh GAP43 (11754022_s_at) / RFU A4GNT (11735810_at) / Fold change /veh A4GNT (11735810_at) / RFU PRB3 (11715151_x_at) / Fold change /veh PRB3 (11715151_x_at) / RFU TUBB4B (11761932_at) / Fold change /veh TUBB4B (11761932_at) / RFU CAPN14 (11732068_a_at) / Fold change /veh CAPN14 (11732068_a_at) / RFU TMCC2 (11721928_a_at) / Fold change /veh TMCC2 (11721928_a_at) / RFU IRGQ (11745062_a_at) / Fold change /veh IRGQ (11745062_a_at) / RFU FAM174B (11720279_a_at) / Fold change /veh FAM174B (11720279_a_at) / RFU TMPRSS4 (11748680_a_at) / Fold change /veh TMPRSS4 (11748680_a_at) / RFU FAM212B (11763350_a_at) / Fold change /veh FAM212B (11763350_a_at) / RFU PLEKHG5 (11743358_a_at) / Fold change /veh PLEKHG5 (11743358_a_at) / RFU ZSCAN30 (11745921_a_at) / Fold change /veh ZSCAN30 (11745921_a_at) / RFU CMKLR1 (11741424_a_at) / Fold change /veh CMKLR1 (11741424_a_at) / RFU LOC101060620 /// MAPK8IP1 (11723275_at) / Fold change /veh LOC101060620 /// MAPK8IP1 (11723275_at) / RFU SPTSSB (11747773_x_at) / Fold change /veh SPTSSB (11747773_x_at) / RFU PRSS12 (11739890_at) / Fold change /veh PRSS12 (11739890_at) / RFU BIN1 (11741810_x_at) / Fold change /veh BIN1 (11741810_x_at) / RFU WNT11 (11732464_a_at) / Fold change /veh WNT11 (11732464_a_at) / RFU C10orf10 (11716521_a_at) / Fold change /veh C10orf10 (11716521_a_at) / RFU C5orf56 (11738089_at) / Fold change /veh C5orf56 (11738089_at) / RFU CYB561 (11721691_x_at) / Fold change /veh CYB561 (11721691_x_at) / RFU ANKRD19P (11752326_a_at) / Fold change /veh ANKRD19P (11752326_a_at) / RFU OR2T12 /// OR2T33 /// OR2T8 (11738714_s_at) / Fold change /veh OR2T12 /// OR2T33 /// OR2T8 (11738714_s_at) / RFU VCAN (11748164_a_at) / Fold change /veh VCAN (11748164_a_at) / RFU JSRP1 (11732532_at) / Fold change /veh JSRP1 (11732532_at) / RFU KRTAP10-11 (11738290_x_at) / Fold change /veh KRTAP10-11 (11738290_x_at) / RFU MYO3A (11730013_a_at) / Fold change /veh MYO3A (11730013_a_at) / RFU EBF3 (11725865_a_at) / Fold change /veh EBF3 (11725865_a_at) / RFU CAMK2N1 (11719241_x_at) / Fold change /veh CAMK2N1 (11719241_x_at) / RFU C5orf56 (11738088_a_at) / Fold change /veh C5orf56 (11738088_a_at) / RFU OLFML3 (11715873_a_at) / Fold change /veh OLFML3 (11715873_a_at) / RFU LOC100653217 /// NTM (11731650_a_at) / Fold change /veh LOC100653217 /// NTM (11731650_a_at) / RFU MAPK11 (11762145_a_at) / Fold change /veh MAPK11 (11762145_a_at) / RFU FIZ1 (11724087_x_at) / Fold change /veh FIZ1 (11724087_x_at) / RFU OASL (11726364_x_at) / Fold change /veh OASL (11726364_x_at) / RFU SOX15 (11748057_x_at) / Fold change /veh SOX15 (11748057_x_at) / RFU CD79A (11719716_a_at) / Fold change /veh CD79A (11719716_a_at) / RFU HIST1H1D (11736915_at) / Fold change /veh HIST1H1D (11736915_at) / RFU CASKIN2 (11723855_a_at) / Fold change /veh CASKIN2 (11723855_a_at) / RFU LOC730098 (11760151_x_at) / Fold change /veh LOC730098 (11760151_x_at) / RFU OR4N2 (11742367_at) / Fold change /veh OR4N2 (11742367_at) / RFU PRRT2 (11749266_a_at) / Fold change /veh PRRT2 (11749266_a_at) / RFU SNX32 (11753110_a_at) / Fold change /veh SNX32 (11753110_a_at) / RFU CDHR5 (11726645_a_at) / Fold change /veh CDHR5 (11726645_a_at) / RFU RCAN1 (11760418_a_at) / Fold change /veh RCAN1 (11760418_a_at) / RFU FAM167A (11723789_a_at) / Fold change /veh FAM167A (11723789_a_at) / RFU FAM26E (11764081_at) / Fold change /veh FAM26E (11764081_at) / RFU ISYNA1 (11749810_s_at) / Fold change /veh ISYNA1 (11749810_s_at) / RFU ACY1 (11761880_at) / Fold change /veh ACY1 (11761880_at) / RFU 11764098_at / Fold change /veh 11764098_at / RFU SAMD14 (11745864_x_at) / Fold change /veh SAMD14 (11745864_x_at) / RFU NPB (11741838_a_at) / Fold change /veh NPB (11741838_a_at) / RFU TMPRSS6 (11731388_a_at) / Fold change /veh TMPRSS6 (11731388_a_at) / RFU KRTAP10-2 (11738614_at) / Fold change /veh KRTAP10-2 (11738614_at) / RFU ARHGAP8 /// PRR5-ARHGAP8 (11727945_x_at) / Fold change /veh ARHGAP8 /// PRR5-ARHGAP8 (11727945_x_at) / RFU KRTAP5-7 /// NADSYN1 (11734609_at) / Fold change /veh KRTAP5-7 /// NADSYN1 (11734609_at) / RFU RASL12 (11751679_a_at) / Fold change /veh RASL12 (11751679_a_at) / RFU CDKN2B (11736163_a_at) / Fold change /veh CDKN2B (11736163_a_at) / RFU PRF1 (11729649_at) / Fold change /veh PRF1 (11729649_at) / RFU, ZNF638 /// ZNF638-IT1 / Fold change vs veh, ZNF638 /// ZNF638-IT1 / RFU, PANK3 / Fold change vs veh, PANK3 / RFU, SH3YL1 / Fold change vs veh, SH3YL1 / RFU, ZEB2 / Fold change vs veh, ZEB2 / RFU, NRIP1 / Fold change vs veh, NRIP1 / RFU, PTTG1IP / Fold change vs veh, PTTG1IP / RFU, CAPN2 / Fold change vs veh, CAPN2 / RFU, MED14 / Fold change vs veh, MED14 / RFU, SNORA58 / Fold change vs veh, SNORA58 / RFU, C1orf63 / Fold change vs veh, C1orf63 / RFU, LRRFIP1 / Fold change vs veh, LRRFIP1 / RFU, NDUFAF7 / Fold change vs veh, NDUFAF7 / RFU, SLC12A2 / Fold change vs veh, SLC12A2 / RFU, IBTK / Fold change vs veh, IBTK / RFU, ESF1 / Fold change vs veh, ESF1 / Fold change vs veh, TMEM50B / RFU, TAOK1 / Fold change vs veh, TAOK1 / RFU, ACBD3 / Fold change vs veh, ACBD3 / RFU, TMA16 / Fold change vs veh, TMA16 / RFU, RWDD3 / Fold change vs veh, RWDD3 / RFU, BCAT1 / Fold change vs veh, BCAT1 / RFU, EDEM3 / Fold change vs veh, EDEM3 / RFU, TMEM33 / Fold change vs veh, TMEM33 / RFU, WDR75 / Fold change vs veh, WDR75 / RFU, AHCTF1 / Fold change vs veh, AHCTF1 / RFU, TFRC / Fold change vs veh, TFRC / RFU, ZDHHC17 / Fold change vs veh, ZDHHC17 / RFU, NOM1 / Fold change vs veh, NOM1 / RFU, ARL8B / Fold change vs veh, ARL8B / RFU, ZBTB11 / Fold change vs veh, ZBTB11 / RFU, TAMM41 / Fold change vs veh, TAMM41 / RFU, KIAA1704 /// LOC100996395 / Fold change vs veh, KIAA1704 /// LOC100996395 / RFU, ING1 / Fold change vs veh, ING1 / RFU, TRMT61B / Fold change vs veh, TRMT61B / RFU, FUBP3 / Fold change vs veh, FUBP3 / RFU, TP53 / Fold change vs veh, TP53 / RFU, TNKS2 / Fold change vs veh, TNKS2 / RFU, ZFP14 / Fold change vs veh, ZFP14 / RFU, ACTR2 / Fold change vs veh, ACTR2 / RFU, PPP3R1 / Fold change vs veh, PPP3R1 / RFU, PIK3R1 / Fold change vs veh, PIK3R1 / RFU, HNRNPA1 / Fold change vs veh, HNRNPA1 / RFU, RNF170 / Fold change vs veh, RNF170 / RFU, ZNF28 / Fold change vs veh, ZNF28 / RFU, RNGTT / Fold change vs veh, RNGTT / RFU, OGT / Fold change vs veh, OGT / RFU, BRD1 / Fold change vs veh, BRD1 / RFU, MARS / Fold change vs veh, MARS / RFU, ZNF655 / Fold change vs veh, ZNF655 / RFU, FAHD1 / Fold change vs veh, FAHD1 / RFU, BDP1 / Fold change vs veh, BDP1 / RFU, LRRCC1 / Fold change vs veh, LRRCC1 / RFU, ARID1A / Fold change vs veh, ARID1A / RFU, ZNF146 / Fold change vs veh, ZNF146 / RFU, ZNF330 / Fold change vs veh, ZNF330 / RFU, GPN3 / Fold change vs veh, GPN3 / RFU, C9orf123 / Fold change vs veh, C9orf123 / RFU, N4BP2L2 / Fold change vs veh, N4BP2L2 / RFU, ARFIP1 / Fold change vs veh, ARFIP1 / RFU, FAM179B / Fold change vs veh, FAM179B / RFU, BCL10 / Fold change vs veh, BCL10 / RFU, UHRF1BP1L / Fold change vs veh, UHRF1BP1L / RFU, BET1 / Fold change vs veh, BET1 / RFU, CNOT2 / Fold change vs veh, CNOT2 / RFU, ZNF268 / Fold change vs veh, ZNF268 / Fold change vs veh, ZNF507 / RFU, DGCR2 / Fold change vs veh, DGCR2 / RFU, WDSUB1 / Fold change vs veh, WDSUB1 / Fold change vs veh, HSP90B1 /// MIR3652 / RFU, ADSS / Fold change vs veh, ADSS / RFU, GK / Fold change vs veh, GK / RFU, ZNF148 / Fold change vs veh, ZNF148 / RFU, TAF9 / Fold change vs veh, TAF9 / RFU, SLC1A5 / Fold change vs veh, SLC1A5 / RFU, SLMO2 / Fold change vs veh, SLMO2 / RFU, ABCC4 / Fold change vs veh, ABCC4 / RFU, LOC101060439 /// RAP1B / Fold change vs veh, LOC101060439 /// RAP1B / RFU, RFX7 / Fold change vs veh, RFX7 / RFU, GTPBP10 / Fold change vs veh, GTPBP10 / RFU, CNEP1R1 / Fold change vs veh, CNEP1R1 / RFU, BIVM-ERCC5 /// ERCC5 / Fold change vs veh, BIVM-ERCC5 /// ERCC5 / RFU, ILF3 / Fold change vs veh, ILF3 / RFU 11762660_at / Fold change /veh 11762660_at / RFU VCAN (11757783_s_at) / Fold change /veh VCAN (11757783_s_at) / RFU DDX43 (11728927_at) / Fold change /veh DDX43 (11728927_at) / RFU KRT8 (11758188_x_at) / Fold change /veh KRT8 (11758188_x_at) / RFU NKD1 (11759106_at) / Fold change /veh NKD1 (11759106_at) / RFU SRD5A1 (11742802_a_at) / Fold change /veh SRD5A1 (11742802_a_at) / RFU TPSAB1 /// TPSB2 (11721975_s_at) / Fold change /veh TPSAB1 /// TPSB2 (11721975_s_at) / RFU GSTM3 (11746129_a_at) / Fold change /veh GSTM3 (11746129_a_at) / RFU IL23R (11737362_x_at) / Fold change /veh IL23R (11737362_x_at) / RFU TMEM51 (11727254_a_at) / Fold change /veh TMEM51 (11727254_a_at) / RFU PIWIL2 (11732686_x_at) / Fold change /veh PIWIL2 (11732686_x_at) / RFU ORM1 (11744905_x_at) / Fold change /veh ORM1 (11744905_x_at) / RFU CCDC152 (11743942_at) / Fold change /veh CCDC152 (11743942_at) / RFU ECM1 (11717891_a_at) / Fold change /veh ECM1 (11717891_a_at) / RFU IL23R (11748794_a_at) / Fold change /veh IL23R (11748794_a_at) / RFU TNFAIP8L3 (11732012_x_at) / Fold change /veh TNFAIP8L3 (11732012_x_at) / RFU MBOAT4 (11741988_at) / Fold change /veh MBOAT4 (11741988_at) / RFU 11764193_at / Fold change /veh 11764193_at / RFU TMEM53 (11763286_at) / Fold change /veh TMEM53 (11763286_at) / RFU MAGEB2 (11727129_at) / Fold change /veh MAGEB2 (11727129_at) / RFU TMEM200A (11744735_a_at) / Fold change /veh TMEM200A (11744735_a_at) / RFU CCDC152 (11751479_a_at) / Fold change /veh CCDC152 (11751479_a_at) / RFU FAM211A (11726209_a_at) / Fold change /veh FAM211A (11726209_a_at) / RFU RGS16 (11746705_a_at) / Fold change /veh RGS16 (11746705_a_at) / RFU VCAN (11755009_s_at) / Fold change /veh VCAN (11755009_s_at) / RFU RHOB (11743442_s_at) / Fold change /veh RHOB (11743442_s_at) / RFU RGS16 (11720943_a_at) / Fold change /veh RGS16 (11720943_a_at) / RFU RGS16 (11720944_at) / Fold change /veh RGS16 (11720944_at) / RFU, VPS4B / Fold change vs veh, VPS4B / RFU, CREB1 / Fold change vs veh, CREB1 / RFU, DNAJC13 / Fold change vs veh, DNAJC13 / RFU, GNAQ / Fold change vs veh, GNAQ / RFU, CDK5R1 / Fold change vs veh, CDK5R1 / RFU, ZRANB3 / Fold change vs veh, ZRANB3 / RFU, CUL4A / Fold change vs veh, CUL4A / RFU, CCNY / Fold change vs veh, CCNY / RFU, UFL1 / Fold change vs veh, UFL1 / RFU, COG3 / Fold change vs veh, COG3 / RFU, DIAPH2 / Fold change vs veh, DIAPH2 / RFU, SKA2 / Fold change vs veh, SKA2 / RFU, AFF3 / Fold change vs veh, AFF3 / RFU, LMF1 / Fold change vs veh, LMF1 / RFU, IPO11 / Fold change vs veh, IPO11 / RFU, DFFB / Fold change vs veh, DFFB / RFU, FOXP1 / Fold change vs veh, FOXP1 / RFU, CARD8 / Fold change vs veh, CARD8 / RFU, STRN3 / Fold change vs veh, STRN3 / RFU, ADK / Fold change vs veh, ADK / RFU, RASSF2 / Fold change vs veh, RASSF2 / RFU, WIPF1 / Fold change vs veh, WIPF1 / RFU, LARP1B / Fold change vs veh, LARP1B / RFU, RASA1 / Fold change vs veh, RASA1 / RFU, RB1 / Fold change vs veh, RB1 / RFU, PPFIA1 / Fold change vs veh, PPFIA1 / RFU, MAT2A / Fold change vs veh, MAT2A / RFU, CCT5 / Fold change vs veh, CCT5 / RFU, WDR92 / Fold change vs veh, WDR92 / RFU, CUX1 / Fold change vs veh, CUX1 / RFU, TTC7A / Fold change vs veh, TTC7A / RFU, TMEM135 / Fold change vs veh, TMEM135 / RFU, DEPTOR / Fold change vs veh, DEPTOR / RFU, CPM / Fold change vs veh, CPM / RFU, DNAJB6 / Fold change vs veh, DNAJB6 / RFU, CACNA2D3 / Fold change vs veh, CACNA2D3 / RFU, DTX4 / Fold change vs veh, DTX4 / RFU, TFCP2 / Fold change vs veh, TFCP2 / RFU, GMCL1 /// GMCL1P1 / Fold change vs veh, GMCL1 /// GMCL1P1 / RFU, AEBP2 / Fold change vs veh, AEBP2 / RFU, SNHG1 /// SNORD22 /// SNORD25 /// SNORD26 /// SNORD27 /// SNORD28 /// SNORD29 /// SNORD31 / Fold change vs veh, SNHG1 /// SNORD22 /// SNORD25 /// SNORD26 /// SNORD27 /// SNORD28 /// SNORD29 /// SNORD31 / Fold change (Aza/veh), C12orf56 (ProbeSet 11735607_a_at) / Fold change (ACY-1035/veh), C12orf56 (ProbeSet 11735607_a_at) / Fold change (Aza/veh), FGFR1OP (ProbeSet 11751329_s_at) / Fold change (ACY-1035/veh), FGFR1OP (ProbeSet 11751329_s_at) / Fold change (Aza/veh), VPS36 (ProbeSet 11739960_a_at) / Fold change (ACY-1035/veh), VPS36 (ProbeSet 11739960_a_at) / RFU SYPL1 (11715823_x_at) / Fold change /veh SYPL1 (11715823_x_at) / RFU IGFBP7 (11715501_s_at) / Fold change /veh IGFBP7 (11715501_s_at) / RFU REEP3 (11722064_at) / Fold change /veh REEP3 (11722064_at) / RFU IGLL1 (11728026_x_at) / Fold change /veh IGLL1 (11728026_x_at): dose or concentration left out as unconfirmed
Conditions: MV-4-11 cells, 48 hours

Nc1ccc(-c2cccs2)cc1NC(=O)c1ccc2c(c1)cc(C1CC1)n2CCN1CCOCC1 [ACY-1035]
Fold change /veh KRTAP5-7 /// NADSYN1 (11734609_at): 0.96
